Data on 6 compounds can be found in patent US20020035138A1, “Activating Cl- secretion” (Southern Research Institute, priority 1997, published 2002).

Data set [1] has as its system CFPAC cells. The experiment in a line: Iodide efflux protocol in CFPAC cells. The data set is classed as cell-based, human. Conditions: for iodide (anion) efflux: CF pancreatic ductular cells (CFPAC), FIG. 1. The source says: (§1) The iodide efflux protocol is a conventional test for the existence of anion permeability pathways, including both CFTR (cAMP-activated) and non-CFTR permeability pathways (e.g., Ca^2+-activated Cl^− transport). […] Ionomycin, a Ca^2+ ionophore, is known to activate non-CFTR-type anion efflux pathways in CFPAC cells by increasing intracellular Ca^2+.
(§2) Epithelial cells in the pancreatic ducts, lung, and colon secrete fluid and electrolytes into the pancreatic ductular lumen, airways and intestinal lumen, respectively. The inability to secrete anions in response to a cAMP-dependent agonist such as forskolin is a hallmark of the CF phenotype. […] Methods: Iodide efflux. Iodide efflux was performed as previously described (Venglarik et al., Am. J. Physiol. 259:C358-C364, 1990, and Drumm et al., Cell 62:1227-1233, 1990) Cells were grown on […] culture dishes, and effluxes were performed when the cells were 80-100% confluent using a phosphate buffered Ringer's solution. Cells were loaded with ^125I (2-5 μCi/ml) for 30 minutes and then washed with PBS to remove extracellular ^125I. Efflux was detected by measuring the radioactivity in the extracellular solution which was changed every 15 seconds. At specific points, compounds were added to the cells. Increases in the rate of efflux after addition of a compound indicates the activation of an anion permeability pathway.

A further data set deals with CFPAC-1 cell monolayers. The experiment in a line: Short circuit current (ISC) in CFPAC-1 cell monolayers, Ussing chamber. The data set is classed as cell-based, human. On the procedure:
FIG 4. Cl^- secretion in CFPAC-1 cells. CFPAC-1 cell monolayers were grown to confluency on permeable supports (Millipore) for 10 days. Filters were mounted in an Ussing chamber, and short circuit current measurement was carried out as previously described ([…] and Dawson, Am. J. Physiol. 251:[…]-[…], 1986). […] The compounds were screened using different concentrations of drugs and adding them to alternate surfaces of the filters (mucosal; serosal; mucosal and serosal). The effects of forskolin (10 μM), UTP (100 μM) CPX (100 μm) and duramycin (5 μm) were also studied. […] Explants of CF nasal polyps (primary airway epithelial cells) and control, non-CF colonic epithelial cells (T84) containing wild-type CFTR were also studied. […] In other words, these experiments raise the possibility that Cl^- secretion effects of drugs such as adenosine, milrinone, IBMX, or forskolin might be increased by compounds employed in the present invention by a conjoint therapy treatment. […] The ISC occurs after mucosal, but not serosal addition of the compound.

The next data set deals with CF tissues. Conditions: including transepithelial transport in vivo; cited from earlier work.
In a further data set the test system is T84 cells. The experiment in a line: Iodide efflux protocol in T84 colonic epithelial cells. The data set is classed as cell-based, human. Conditions: T84 cells expressing high levels of CFTR.
From the text: as §1, §2

Another data set concerns mouse intestine. The experiment in a line: ISC across mouse intestine (colon sections) in Ussing chambers. On the procedure: Small sections of mouse colon from both wild-type and CF knockout mice were mounted in Ussing chambers, and ISC measurements were recorded as described above. Both mucosal and serosal surfaces were bathed in regular Ringer's solution, and TTX (1.54×10^−3 μM) was added to the serosal side of the tissue. After a steady-state had been obtained, amiloride (10^−4 M) was added to the mucosal surface. Both sides were then bathed with regular Ringer's. A Cl gradient was established by bathing the mucosal surface with a 6 mM Cl^− solution. 5-diazoimidazol-4-carboxylic acid n-octyl ester (100 μM) was added first to the mucosal and then the serosal surface of the mounted tissue (FIG. 9).

Data set [2] has as its system CFPAC cells. The experiment in a line: Cell proliferation assay (Cell titer 96 kit). The data set is classed as cell-based, human. As to the method:
(§3) Proliferation was measured as in Hughes et al., Tumor specific killing with high bystander toxicity using the human tyrosinase promoter to express the E. coli PNP gene, Cancer Research 55: 3339-3345, 1995 and Parker et al., In vivo gene therapy of cancer with E. coli purine nucleoside phosphorylase, Human Gene Therapy, 1997 (in press) using a commercially available kit (Cell titer 96 kit, Promega) and carried out according to manufacturer's protocol. 20 μm 2931 activates Cl^− secretion in CF cells within 5 minutes. […] (FIG. 3A) cAMP levels were tested using the cAMP Immunoassay kit (Cayman) according to manufacturer's protocol.

The subject of data set [3] is T84 colonic epithelial cells. The experiment in a line: Short circuit current (ISC) in T84 colonic epithelial cell monolayers. The data set is classed as cell-based, human. To be noted: with 10 μM forskolin. As to the method:
FIG 4. Cl^- secretion in CFPAC-1 cells. CFPAC-1 cell monolayers were grown to confluency on permeable supports (Millipore) for 10 days. Filters were mounted in an Ussing chamber, and short circuit current measurement was carried out as previously described ([…] and Dawson, Am. J. Physiol. 251:[…]-[…], 1986). Filters were bathed in Ringer's solution (in mM: 145 Na^+, 5 K^+, 124.8 Cl^-, 1.2 Ca^2+, 1.2 Mg^2+, 25 HCO3-, 4.2 PO4, 10 glucose; pH=7.4) on the serosal surface and in a 6 mM Cl^- Ringer's solution (118.8 mM of Cl^- was replaced by the impermeant anion gluconate) on the mucosal surface. The compounds were screened using different concentrations of drugs and adding them to alternate surfaces of the filters (mucosal; serosal; mucosal and serosal). The effects of forskolin (10 μM), UTP (100 μM) CPX (100 μm) and duramycin (5 μm) were also studied. […] Explants of CF nasal polyps (primary airway epithelial cells) and control, non-CF colonic epithelial cells (T84) containing wild-type CFTR were also studied. […] In other words, these experiments raise the possibility that Cl^- secretion effects of drugs such as adenosine, milrinone, IBMX, or forskolin might be increased by compounds employed in the present invention by a conjoint therapy treatment. […] The ISC occurs after mucosal, but not serosal addition of the compound.

Data set [4] concerns primary airway cells taken from a CF patient. The experiment in a line: Iodide efflux protocol in primary airway cells taken from a CF patient. The data set is classed as cell-based, human. To be noted: FIG. 2. On the procedure:
as §2

The subject of another data set is cellular cAMP. The experiment in a line: cAMP Immunoassay kit, cellular cAMP levels. The data set is classed as cell-based, human. Conditions: same conditions that stimulate anion transport, FIG. 3. As to the method: as §3
For orientation: Cyclic AMP is a second messenger, typically raised through Gs and lowered through Gi signalling.

Another data set has as its target T1, ΔF508 CFTR (Homo sapiens, UniProt P13569, DEL508-508).
T1 construct: host or cells: CFPAC and IB3-1 (endogenous mutant CFTR); NIH 3T3 (after expression of the ΔF508 protein)
To be noted: cited from earlier work.

Setting [5] is: 100 μM, serosal-mucosal Cl- gradient.

“Also recorded” adds a separate entry of the source. Where two headings read alike, the source gives them in different places.

T1 sequence (P13569 with tags, fused parts or gaps DEL508-508): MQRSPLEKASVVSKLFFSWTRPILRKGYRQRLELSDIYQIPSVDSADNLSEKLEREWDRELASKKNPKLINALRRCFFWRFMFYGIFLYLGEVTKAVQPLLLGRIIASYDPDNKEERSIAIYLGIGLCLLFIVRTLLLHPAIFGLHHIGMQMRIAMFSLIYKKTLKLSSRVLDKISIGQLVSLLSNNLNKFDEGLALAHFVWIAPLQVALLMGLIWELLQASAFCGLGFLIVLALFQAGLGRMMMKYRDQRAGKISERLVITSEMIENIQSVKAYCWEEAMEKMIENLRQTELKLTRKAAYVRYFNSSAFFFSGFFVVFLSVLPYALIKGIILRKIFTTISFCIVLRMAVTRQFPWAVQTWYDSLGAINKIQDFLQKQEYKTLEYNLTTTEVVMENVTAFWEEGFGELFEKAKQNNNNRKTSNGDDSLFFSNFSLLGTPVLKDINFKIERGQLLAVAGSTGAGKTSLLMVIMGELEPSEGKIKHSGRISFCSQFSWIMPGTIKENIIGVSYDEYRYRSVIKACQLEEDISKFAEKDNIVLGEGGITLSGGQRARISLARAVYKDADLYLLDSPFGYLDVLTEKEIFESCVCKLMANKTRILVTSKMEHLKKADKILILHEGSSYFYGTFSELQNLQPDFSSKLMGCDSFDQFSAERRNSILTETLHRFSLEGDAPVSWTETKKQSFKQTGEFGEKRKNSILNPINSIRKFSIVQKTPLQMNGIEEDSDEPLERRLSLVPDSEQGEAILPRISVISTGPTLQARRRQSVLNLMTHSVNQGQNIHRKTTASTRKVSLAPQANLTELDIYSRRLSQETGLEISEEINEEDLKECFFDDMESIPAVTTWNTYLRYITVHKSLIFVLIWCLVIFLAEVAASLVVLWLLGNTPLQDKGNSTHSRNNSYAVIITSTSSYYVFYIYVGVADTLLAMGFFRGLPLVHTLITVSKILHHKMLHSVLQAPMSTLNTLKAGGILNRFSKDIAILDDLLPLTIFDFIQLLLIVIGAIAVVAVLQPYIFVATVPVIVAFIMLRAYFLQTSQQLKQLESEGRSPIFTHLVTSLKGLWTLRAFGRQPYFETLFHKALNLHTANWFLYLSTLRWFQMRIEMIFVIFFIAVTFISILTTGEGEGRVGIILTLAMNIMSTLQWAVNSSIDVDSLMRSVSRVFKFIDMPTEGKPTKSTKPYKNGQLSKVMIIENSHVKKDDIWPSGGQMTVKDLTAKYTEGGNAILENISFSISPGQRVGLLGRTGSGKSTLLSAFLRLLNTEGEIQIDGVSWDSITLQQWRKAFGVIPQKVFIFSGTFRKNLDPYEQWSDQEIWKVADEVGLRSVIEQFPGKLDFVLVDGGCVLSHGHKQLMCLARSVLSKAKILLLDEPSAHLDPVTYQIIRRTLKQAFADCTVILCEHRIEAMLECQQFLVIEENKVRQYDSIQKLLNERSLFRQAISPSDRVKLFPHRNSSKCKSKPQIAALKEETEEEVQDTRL

With `C[C@H](CCC(=O)O)C[C@H](C)C[C@H](C)C(=O)/C=C(\O)[C@H](C)C[C@H](C)C/C=C/[C@@H](C)[C@@H](O)[C@@H](C)[C@@H](O)C[C@@H]1CC[C@@](C)([C@H]2CC[C@@](C)([C@@H](C)O)O2)O1` [Ionomycin, reference compound], the “iodide (anion) efflux” value in the data set on CFPAC cells [1] was “anticipated stimulation of iodide efflux”.

For `O=c1ccn([C@@H]2O[C@H](COP(=O)(O)OP(=O)(O)OP(=O)(O)O)[C@@H](O)[C@H]2O)c(=O)[nH]1` [UTP, uridine triphosphate, reference compound], the “ISC / transepithelial Cl- secretion” value in the data set with CFPAC-1 cell monolayers (setting [5]) is “small, transient activation; also recorded: smaller, transient effect”. In addition, in the data set with CF tissues, the Cl- secretion entry was “shown to activate”.

For the compound `Nc1ncnc2c1ncn2[C@@H]1O[C@H](COP(=O)(O)OP(=O)(O)OP(=O)(O)O)[C@@H](O)[C@H]1O` [ATP, adenosine triphosphate], the Cl- secretion entry in the data set with CF tissues is on record as “shown to activate”.

Consider `CCCCCCCCOC(=O)C1=NC=NC1=[N+]=[N-]` [5-diazoimidazol-4-carboxylic acid n-octyl ester], for which the “iodide (anion) efflux” value with T84 cells is reported as “strongly activated”; with CFPAC cells [1], “confers a rapid efflux of iodide; also recorded: strongly activated”; in data set [4], “strongly activated”. Further, the ISC activation entry with mouse intestine (CFTR knock out (−/−) mice, data not shown) is “ISC activation is also observed”; in the data set on mouse intestine (normal mice, 100 μM, mucosal surface), “activates ISC”; with mouse intestine (ΔF508 CFTR transgenic mice, 100 μM, mucosal surface), “activates ISC”. Besides, in the data set with CFPAC cells [1] (20 μm, CF cells), the “time to activation of Cl- secretion” value was no more than 5 min. Moreover, in the data set on CFPAC cells [1] (extracellular Ca2+ removed), the “anion efflux after removal of extracellular Ca2+” value is listed as “does not substantially inhibit anion efflux”. In addition, the proliferation of cells entry with CFPAC cells [2] (at concentrations that activate anion efflux, FIG. 3A) was “allows proliferation of cells”. The “effects on cellular proliferation” value with CFPAC cells [2] (cells grown for 7 days at 20 μm) is given as “minimal effects on cellular proliferation”. The “induced ISC in presence of BAPTA AM” value in the data set on CFPAC-1 cell monolayers (BAPTA AM 100 μM, FIG. 7) is reported as “had no effect”. The “potency and duration of effects relative to UTP and CPX” value in the data set on CFPAC-1 cell monolayers (CFPAC cells) is “more potent and prolonged effects”. Besides, in the data set on CFPAC-1 cell monolayers (Cl- gradient reversed (mucosal-to-serosal)), the “direction of ISC” value is “could be reversed”. Also, the ISC response entry was “much less pronounced” in the data set with CFPAC-1 cell monolayers (Cl- omitted from mucosal and serosal bathing solutions); “strong ISC response” with CFPAC-1 cell monolayers (added to apical (mucosal) surface, serosal-to-mucosal Cl- gradient); “not basolateral” in the data set with CFPAC-1 cell monolayers (added to basolateral (serosal) surface). In the data set with CFPAC-1 cell monolayers (acetazolimide 100 μM), the “ISC effect in presence of acetazolimide” value is “did not inhibit the effect”. Further, the “ISC response in presence of amiloride” value in the data set with CFPAC-1 cell monolayers (amiloride 10 μM on apical surface) is listed as “did not alter this response”. In addition, the duration of activity result with CFPAC-1 cell monolayers (compared with UTP, CPX or duramycin, same conditions, FIG. 8) is given as “of longer duration than other drugs”. In addition, the “ISC activation without imposed gradient” value with CFPAC-1 cell monolayers (symmetrical Ringer's lactate) is given as “still present”. Also, the “induced ISC in presence of thapsagargin” value in the data set on CFPAC-1 cell monolayers (thapsagargin 0.1 μM, FIG. 7) is on record as “had no effect”. For the same compound, in data set [3], the “ISC on top of maximal forskolin activation” value is “augmented the maximal ISC activation”. The “cellular cAMP” value with cellular cAMP is given as “does not increase cellular cAMP”.

As to `CCCn1c(=O)c2[nH]c(C3CCCC3)nc2n(CCC)c1=O` [CPX, reference compound], the “ISC / transepithelial Cl- secretion” value in the data set with CFPAC-1 cell monolayers (setting [5]) is reported as “did not suggest strong Cl^− secretion; also recorded: do not mediate Cl^− secretion”. Moreover, in the data set on CFPAC-1 cell monolayers (setting [5]), the “direction of predominant ISC” value is listed as “opposite to that expected”. For the same compound, the Cl- efflux entry on ΔF508 CFTR (NIH 3T3 cells after expression of the ΔF508 protein), on ΔF508 CFTR (airway cells derived from a CF patient (IB3-1-cell line)) and on ΔF508 CFTR (human CF pancreatic cells (CFPAC-cell line)) was “could be activated” each time.

As to duramycin [reference compound], the “ISC / transepithelial Cl- secretion” value with CFPAC-1 cell monolayers (5 μm) was “stronger, although transient, activation”.
